# From ChEMBL document CHEMBL1201861, “Genomics of Drug Sensitity in Cancer screening data, Wellcome Trust Sanger Institute”
# Tests used:
# Assay in all cases: cells
# [1] = system: ALL-PO; assay type: functional, cell-based; settings: Homo sapiens;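 also: growth inhibition of ALL-PO cells, read out by a cell viability assay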
# Description: SANGER: Inhibition of human ALL-PO cell growth in a cell viability assay.
# [2] = system: PANC-08-13; assay type: functional, cell-based, Homo sapiens; settings: Homo sapiens, PANC-08-13;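 also: cell growth inhibition, measured with a cell viability assay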
# Description: SANGER: Inhibition of human PANC-08-13 cell growth in a cell viability assay.
# [3] = system: CAL-72; assay type: functional, cell-based, Homo sapiens; settings: Homo sapiens, CAL-72;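 also: cell viability assay measuring inhibition of proliferation in the CAL-72 cell line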
# Description: SANGER: Inhibition of human CAL-72 cell growth in a cell viability assay.
# [4] = system: SBC-5; assay type: functional, cell-based, Homo sapiens; settings: Homo sapiens, SBC-5;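 also: cell viability assay read-out, IC50 is the concentration that inhibits growth of the cells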
# Description: SANGER: Inhibition of human SBC-5 cell growth in a cell viability assay.
# [5] = system: HCC1419; assay type: functional, cell-based, Homo sapiens; settings: Homo sapiens, HCC1419;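 also: growth inhibition of human HCC1419 cells, read out as cell viability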
# Description: SANGER: Inhibition of human HCC1419 cell growth in a cell viability assay.
# [6] = system: Hs-578T; assay type: functional, cell-based, Homo sapiens; settings: Homo sapiens, Hs-578T
# Description: SANGER: Inhibition of human Hs-578-T cell growth in a cell viability assay.
# [7] = system: TE-9; assay type: functional, cell-based, Homo sapiens; settings: Homo sapiens, TE-9;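 also: cell growth inhibition, measured with a cell viability readout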
# Description: SANGER: Inhibition of human TE-9 cell growth in a cell viability assay.
# [8] = system: NCI-H1437; assay type: functional, cell-based, Homo sapiens; settings: Homo sapiens, NCI-H1437;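 also: growth inhibition of human NCI-H1437 cells, read out by a cell viability assay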
# Description: SANGER: Inhibition of human NCI-H1437 cell growth in a cell viability assay.
# [9] = system: HuP-T4; assay type: functional, cell-based, Homo sapiens; settings: Homo sapiens, HuP-T4;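 also: cell viability assay measuring how much HuP-T4 cell growth is inhibited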
# Description: SANGER: Inhibition of human HuP-T4 cell growth in a cell viability assay.
# [10] = system: LU-134-A; assay type: functional, cell-based; settings: Homo sapiens
# Description: SANGER: Inhibition of human LU-134-A cell growth in a cell viability assay.
# [11] = system: SK-PN-DW; assay type: functional, cell-based; settings: Homo sapiens;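 also: growth inhibition measured with a viability assay on these cells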
# Description: SANGER: Inhibition of human SK-PN-DW cell growth in a cell viability assay.
# [12] = system: NUGC-3; assay type: functional, cell-based, Homo sapiens; settings: Homo sapiens, NUGC-3;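 also: growth inhibition of human NUGC-3 cells, read out with a cell viability assay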
# Description: SANGER: Inhibition of human NUGC-3 cell growth in a cell viability assay.
# [13] = system: NCI-H1299; assay type: functional, cell-based, Homo sapiens; settings: Homo sapiens, NCI-H1299;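 also: growth inhibition of human NCI-H1299 cells, read out by a cell viability assay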
# Description: SANGER: Inhibition of human NCI-H1299 cell growth in a cell viability assay.
# [14] = system: BE-13; assay type: functional, cell-based; settings: Homo sapiens;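 also: growth inhibition of human BE-13 cells, measured with a cell viability assay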
# Description: SANGER: Inhibition of human BE-13 cell growth in a cell viability assay.
# [15] = system: U-266; assay type: functional, cell-based; settings: Homo sapiens
# Description: SANGER: Inhibition of human U-266 cell growth in a cell viability assay.
# [16] = system: CW-2; assay type: functional, cell-based, Homo sapiens; settings: Homo sapiens, CW-2;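 also: growth inhibition of CW-2 cells, read out by a cell viability assay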
# Description: SANGER: Inhibition of human CW-2 cell growth in a cell viability assay.
# [17] = system: UO-31; assay type: functional, cell-based; settings: Homo sapiens;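 also: cell viability assay measuring inhibition of cell growth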
# Description: SANGER: Inhibition of human U031 cell growth in a cell viability assay.
# [18] = system: CCRF-CEM; assay type: functional, cell-based; settings: Homo sapiens;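 also: inhibition of CCRF-CEM cell growth, measured by a cell viability assay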
# Description: SANGER: Inhibition of human CCRF-CEM cell growth in a cell viability assay.
# [19] = system: SW 954; assay type: functional, cell-based, Homo sapiens; settings: Homo sapiens, SW 954;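 also: growth inhibition of SW954 human cancer cells, read out as cell viability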
# Description: SANGER: Inhibition of human SW954 cell growth in a cell viability assay.
# [20] = system: NB10; assay type: functional, cell-based, Homo sapiens; settings: Homo sapiens, NB10;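 also: growth inhibition of NB10 cells, read out by a cell viability assay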
# Description: SANGER: Inhibition of human NB10 cell growth in a cell viability assay.
# [21] = system: RS4-11; assay type: functional, cell-based; settings: Homo sapiens;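 also: growth inhibition of RS4-11 cells, read out by a cell viability assay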
# Description: SANGER: Inhibition of human RS4-11 cell growth in a cell viability assay.
# [22] = system: RD; assay type: functional, cell-based, Homo sapiens; settings: Homo sapiens, RD
# Description: SANGER: Inhibition of human RD cell growth in a cell viability assay.
# [23] = system: NB6; assay type: functional, cell-based, Homo sapiens; settings: Homo sapiens, NB6;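 also: growth inhibition of NB6 cells, read out by a cell viability assay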
# Description: SANGER: Inhibition of human NB6 cell growth in a cell viability assay.
# [24] = system: ETK-1; assay type: functional, cell-based, Homo sapiens; settings: Homo sapiens, ETK-1;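 also: growth inhibition of human ETK-1 cells, read out with a cell viability assay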
# Description: SANGER: Inhibition of human ETK-1 cell growth in a cell viability assay.
# [25] = system: CGTH-W-1; assay type: functional, cell-based, Homo sapiens; settings: Homo sapiens, CGTH-W-1;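 also: growth inhibition of human CGTH-W-1 cells measured by cell viability assay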
# Description: SANGER: Inhibition of human CGTH-W-1 cell growth in a cell viability assay.
# [26] = system: HCC38; assay type: functional, cell-based, Homo sapiens; settings: Homo sapiens, HCC38;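 also: cell viability assay on the human HCC38 cell line, with IC50 marking the concentration that inhibits cell growth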
# Description: SANGER: Inhibition of human HCC38 cell growth in a cell viability assay.
# [27] = system: A-427; assay type: functional, cell-based, Homo sapiens; settings: Homo sapiens, A-427;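 also: growth inhibition of human A-427 cells, read out by a cell viability assay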
# Description: SANGER: Inhibition of human A427 cell growth in a cell viability assay.
# [28] = system: SK-MEL-28; assay type: functional, cell-based; settings: Homo sapiens;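 also: growth inhibition of human SK-MEL-28 cells, read out with a cell viability assay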
# Description: SANGER: Inhibition of human SK-MEL-28 cell growth in a cell viability assay.
# [29] = system: NCI-H2347; assay type: functional, cell-based, Homo sapiens; settings: Homo sapiens, NCI-H2347;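 also: growth inhibition of the cell line, read out with a cell viability assay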
# Description: SANGER: Inhibition of human NCI-H2347 cell growth in a cell viability assay.
# [30] = system: COR-L105; assay type: functional, cell-based, Homo sapiens; settings: Homo sapiens, COR-L105;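 also: cell growth inhibition determined with a viability assay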
# Description: SANGER: Inhibition of human COR-L105 cell growth in a cell viability assay.
# [31] = system: NCI-H727; assay type: functional, cell-based, Homo sapiens; settings: Homo sapiens, NCI-H727;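 also: growth inhibition of human NCI-H727 cells, read out with a cell viability assay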
# Description: SANGER: Inhibition of human NCI-H727 cell growth in a cell viability assay.
# [32] = system: PC-3; assay type: functional, cell-based, Homo sapiens; settings: Homo sapiens, PC-3;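 also: cell viability assay measuring growth inhibition of PC-3 cells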
# Description: SANGER: Inhibition of human PC-3 cell growth in a cell viability assay.
# [33] = system: MCF7; assay type: functional, cell-based, Homo sapiens; settings: Homo sapiens, MCF7;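 also: growth inhibition of human MCF7 cells, read out with a cell viability assay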
# Description: SANGER: Inhibition of human MCF7 cell growth in a cell viability assay.
# [34] = system: no-11; assay type: functional, cell-based, Homo sapiens; settings: Homo sapiens;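 also: growth inhibition of human NO-11 cells, read out with a cell viability assay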
# Description: SANGER: Inhibition of human no-11 cell growth in a cell viability assay.
# [35] = system: A204; assay type: functional, cell-based, Homo sapiens; settings: Homo sapiens, A204;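 also: growth inhibition of human A204 cells, read out with a cell viability assay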
# Description: SANGER: Inhibition of human A204 cell growth in a cell viability assay.
# [36] = system: NCI-H1581; assay type: functional, cell-based, Homo sapiens; settings: Homo sapiens, NCI-H1581;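 also: cell growth inhibition read out by a viability assay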
# Description: SANGER: Inhibition of human NCI-H1581 cell growth in a cell viability assay.
# [37] = system: NB13; assay type: functional, cell-based, Homo sapiens; settings: Homo sapiens, NB13;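 also: cell viability readout measuring growth inhibition of human NB13 cells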
# Description: SANGER: Inhibition of human NB13 cell growth in a cell viability assay.
# [38] = system: NOS-1; assay type: functional, cell-based, Homo sapiens; settings: Homo sapiens, NOS-1;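 also: growth inhibition of the human NOS-1 cell line, read out with a cell viability assay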
# Description: SANGER: Inhibition of human NOS-1 cell growth in a cell viability assay.
# [39] = system: M14; assay type: functional, cell-based, Homo sapiens; settings: Homo sapiens, M14;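 also: growth inhibition of M14 cells, read out with a cell viability assay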
# Description: SANGER: Inhibition of human M14 cell growth in a cell viability assay.
# [40] = system: NB5; assay type: functional, cell-based, Homo sapiens; settings: Homo sapiens, NB5;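 also: growth inhibition of NB5 cells, read out as cell viability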
# Description: SANGER: Inhibition of human NB5 cell growth in a cell viability assay.
# [41] = system: DMS-114; assay type: functional, cell-based, Homo sapiens; settings: Homo sapiens, DMS-114
# [42] = system: UACC-62; assay type: functional, cell-based, Homo sapiens; settings: Homo sapiens, UACC-62;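 also: growth inhibition of human UACC-62 cells, read out by a cell viability assay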
# Description: SANGER: Inhibition of human UACC-62 cell growth in a cell viability assay.
# [43] = system: SW1710; assay type: functional, cell-based, Homo sapiens; settings: Homo sapiens, SW1710;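 also: growth inhibition of SW1710 cells, determined with a cell viability assay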
# Description: SANGER: Inhibition of human SW1710 cell growth in a cell viability assay.
# [44] = system: RCC10RGB; assay type: functional, cell-based, Homo sapiens; settings: Homo sapiens, RCC10RGB;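 also: growth inhibition of human RCC10RGB cells, read out by a cell viability assay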
# Description: SANGER: Inhibition of human RCC10RGB cell growth in a cell viability assay.
# [45] = system: CTB-1; assay type: functional, cell-based; settings: Homo sapiens
# Description: SANGER: Inhibition of human CTB-1 cell growth in a cell viability assay.
# [46] = system: HCC1954; assay type: functional, cell-based, Homo sapiens; settings: Homo sapiens, HCC1954;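 also: growth inhibition of human HCC1954 cells, read out with a cell viability assay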
# Description: SANGER: Inhibition of human HCC1954 cell growth in a cell viability assay.
# [47] = system: CAL-120; assay type: functional, cell-based, Homo sapiens; settings: Homo sapiens, CAL-120;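 also: cell growth inhibition, read out as cell viability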
# Description: SANGER: Inhibition of human CAL-120 cell growth in a cell viability assay.
# [48] = system: NCI-H661; assay type: functional, cell-based, Homo sapiens; settings: Homo sapiens, NCI-H661;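 also: cell viability assay read-out, IC50 being the concentration that inhibits growth of the cells by half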
# Description: SANGER: Inhibition of human NCI-H661 cell growth in a cell viability assay.
# [49] = system: EW-18; assay type: functional, cell-based; settings: Homo sapiens;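 also: growth inhibition of EW-18 cells, read out by a cell viability assay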
# Description: SANGER: Inhibition of human EW-18 cell growth in a cell viability assay.
# [50] = system: MS-1; assay type: functional, cell-based; settings: Homo sapiens;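 also: growth inhibition of MS-1 cells, read out by cell viability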
# Description: SANGER: Inhibition of human MS-1 cell growth in a cell viability assay.
# [51] = system: FaDu; assay type: functional, cell-based, Homo sapiens; settings: Homo sapiens, FaDu;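 also: cell viability readout of growth inhibition in FaDu cells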
# Description: SANGER: Inhibition of human FADU cell growth in a cell viability assay.
# [52] = system: U-251; assay type: functional, cell-based, Homo sapiens; settings: Homo sapiens, U-251;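 also: growth inhibition of human U-251 cells, read out through a cell viability assay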
# Description: SANGER: Inhibition of human U251 cell growth in a cell viability assay.
structure (smiles),measurement,setting,value
COc1ccc(-c2ccc3c(N4CCOC[C@@H]4C)nc(N4CCOC[C@@H]4C)nc3n2)cc1CO [AZD-8055],IC50,[1],1440 nM
same,IC50,[2],574 nM
same,IC50,[3],> 2000 nM
same,IC50,[4],1550 nM
same,IC50,[5],869 nM
same,IC50,[6],599 nM
same,IC50,[7],> 2000 nM
same,IC50,[8],606 nM
same,IC50,[9],1490 nM
same,IC50,[10],1030 nM
same,IC50,[11],1760 nM
same,IC50,[12],707 nM
same,IC50,[13],1500 nM
same,IC50,[14],1120 nM
same,IC50,[15],> 2000 nM
same,IC50,[16],> 2000 nM
same,IC50,[17],> 2000 nM
same,IC50,[18],> 2000 nM
same,IC50,[19],> 2000 nM
same,IC50,[20],> 2000 nM
same,IC50,[21],759 nM
same,IC50,[22],> 2000 nM
same,IC50,[23],> 2000 nM
same,IC50,[24],894 nM
same,IC50,[25],1560 nM
same,IC50,[26],> 2000 nM
same,IC50,[27],962 nM
same,IC50,[28],559 nM
same,IC50,[29],824 nM
same,IC50,[30],> 2000 nM
same,IC50,[31],> 2000 nM
same,IC50,[32],722 nM
same,IC50,[33],405 nM
same,IC50,[34],> 2000 nM
same,IC50,[35],190 nM
same,IC50,[36],190 nM
same,IC50,[37],1140 nM
same,IC50,[38],411 nM
same,IC50,[39],472 nM
same,IC50,[40],703 nM
same,IC50,[41],937 nM
same,IC50,[42],> 2000 nM
same,IC50,[43],632 nM
same,IC50,[44],> 2000 nM
same,IC50,[45],272 nM
same,IC50,[46],> 2000 nM
same,IC50,[47],860 nM
same,IC50,[48],1450 nM
same,IC50,[49],141 nM
same,IC50,[50],> 2000 nM
same,IC50,[51],> 2000 nM
same,IC50,[52],> 2000 nM
COc1ccc(C2=N[C@@H](c3ccc(Cl)cc3)[C@@H](c3ccc(Cl)cc3)N2C(=O)N2CCNC(=O)C2)c(OC(C)C)c1 [NUTLIN-3],IC50,[1],> 8000 nM
same,IC50,[2],> 8000 nM
same,IC50,[3],> 8000 nM
same,IC50,[4],> 8000 nM
same,IC50,[5],> 8000 nM
same,IC50,[6],> 8000 nM
same,IC50,[7],> 8000 nM
same,IC50,[8],> 8000 nM
same,IC50,[9],> 8000 nM
same,IC50,[10],> 8000 nM
same,IC50,[11],> 8000 nM
same,IC50,[12],> 8000 nM
same,IC50,[13],> 8000 nM
same,IC50,[14],> 8000 nM
same,IC50,[15],> 8000 nM
same,IC50,[16],> 8000 nM
same,IC50,[17],> 8000 nM
same,IC50,[18],> 8000 nM
same,IC50,[19],6560 nM
same,IC50,[20],3210 nM
same,IC50,[21],2720 nM
same,IC50,[22],> 8000 nM
same,IC50,[23],> 8000 nM
same,IC50,[24],> 8000 nM
same,IC50,[25],> 8000 nM
same,IC50,[26],> 8000 nM
same,IC50,[27],6880 nM
same,IC50,[28],> 8000 nM
same,IC50,[29],> 8000 nM
same,IC50,[30],> 8000 nM
same,IC50,[31],> 8000 nM
same,IC50,[32],> 8000 nM
same,IC50,[33],5440 nM
same,IC50,[34],> 8000 nM
same,IC50,[35],3060 nM
same,IC50,[36],> 8000 nM
same,IC50,[37],> 8000 nM
same,IC50,[38],> 8000 nM
same,IC50,[39],> 8000 nM
same,IC50,[40],6560 nM
same,IC50,[41],> 8000 nM
same,IC50,[42],> 8000 nM
same,IC50,[43],> 8000 nM
same,IC50,[44],> 8000 nM
same,IC50,[45],2020 nM
same,IC50,[46],> 8000 nM
same,IC50,[47],> 8000 nM
same,IC50,[48],7870 nM
same,IC50,[49],> 8000 nM
same,IC50,[50],> 8000 nM
same,IC50,[51],> 8000 nM
same,IC50,[52],> 8000 nM
